# From paper PMC6428247, “Potent inhibitors of equine steroid isomerase EcaGST A3-3” (PLoS ONE, 2019)
# Values joined by “and” are separate entries in the source; they are usually repeats but may differ in a detail not shown here. Equal entries are not always repeated. Structures can show the parent of a compound that is named as a salt.
# Columns and labels:
# EcaGST A3-3 [1] = biological target: T1, EcaGST A3-3 (Equus caballus, UniProt M9ZT87); assay: Inhibition of EcaGST A3-3 activity, GSH conjugation with CDNB; assay type: biochemical, Equus ferus caballus; conditions: for inhibition at 10 µM: read-out: Inhibition (%) of EcaGST A3-3; for IC50: 100 mM sodium phosphate pH 6.5, 30°C, read-out: IC50 EcaGST A3-3, substrate CDNB
# Experimental: The final solvent concentration in the reaction system was kept at 5% (v/v) as a maximum.
# (§1) The conjugation of GSH with the electrophilic substrate CDNB was used as a biochemical assay for general activity measurements. Screening of the US Drug library for inhibition was done in triplicates in 96-well plates in a Thermo Scientific Multiskan GO spectrophotometer. The conjugation activity at 30°C was monitored at 340 nm for 1 min in 0.1 M sodium phosphate buffer at pH 6.5 and 10 μM inhibitor concentration in a final volume of 300 μL. Initial concentrations of GSH and CDNB were 1 mM.
# Assay conditions for inhibition measurements of enzyme activity with CDNB were the following: EcaGST A3-3 15 nM, initial concentrations of GSH and CDNB 1 mM, inhibitor concentrations varying from 0.029 μM to 15 μM, in 100 mM Na2HPO4/NaH2PO4 at pH 6.5.
# The reactions were followed spectrophotometrically for 1 min at 30°C using a Shimadzu UV-2501 PC spectrophotometer (Shimadzu Inc.). All experiments included triplicate measurements in each data point.
# The equation for competitive inhibition fitted by non-linear regression was v=Vmax[S]/KM(1+[I]/Ki)+[S] where [S] is the substrate concentrations and [I] is the inhibitor concentration.
# HsaGST P1-1 = tested on: HsaGST P1-1; design: method as in PMID 23769903; conditions: 3.3 μM inhibitor, 1 mM GSH, 1 mM CDNB, pH 6.5, 30°C; cited from earlier work
# HsaGST S1-1 = tested on: HsaGST S1-1; design: method as in PMID 25603235; conditions: 1 mM GSH, 1 mM CDNB, pH 6.5, 30°C, cited from earlier work; for Inhibition (%) of HsaGST S1-1: 10 μM inhibitor
# HsaGST A3-3 = biological target: T2, HsaGST A3-3 (Homo sapiens, UniProt Q16772); assay: Inhibition of HsaGST A3-3 CDNB activity; assay type: biochemical; conditions: 1 mM GSH, 1 mM CDNB, pH 6.5, 30°C; for IC50: CDNB activity
# T2 construct: made in house
# T2 sequence (Q16772 1-222): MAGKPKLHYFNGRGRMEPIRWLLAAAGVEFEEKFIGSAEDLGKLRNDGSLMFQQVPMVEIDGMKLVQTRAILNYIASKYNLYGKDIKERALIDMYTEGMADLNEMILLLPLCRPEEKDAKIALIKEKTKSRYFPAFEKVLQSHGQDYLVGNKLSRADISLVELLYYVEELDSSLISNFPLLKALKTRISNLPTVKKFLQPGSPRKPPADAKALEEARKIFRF
# Experimental: (§2) EcaGST A3-3 [10], HsaGST A3-3 [12] and HsaGST M2-2 [13] were cloned, expressed and purified as described previously. Protein concentration was determined by means of the Bradford assay.
# as §1
# (§3) For understanding the effects of pharmacological interventions based on GST inhibitors, it is important to know the selectivity among the numerous GSTs. […] All values were determined with CDNB, which is a common substrate for all the enzymes.
# EcaGST A3-3 [2] = biological target: T1, EcaGST A3-3; assay: Inhibition of EcaGST A3-3 steroid double-bond isomerase activity with Δ^5-AD; assay type: biochemical, Equus ferus caballus; conditions: for IC50 EcaGST A3-3, substrate Δ^5-AD: 0.1 mM Δ^5-AD, 25 mM sodium phosphate pH 8.0, 30°C
# HsaGST M2-2 = biological target: T3, HsaGST M2-2 (Homo sapiens, UniProt P28161); assay: Inhibition of HsaGST M2-2 CDNB activity; assay type: biochemical; conditions: 1 mM GSH, 1 mM CDNB, pH 6.5, 30°C; for IC50: CDNB activity, read-out: IC50 HsaGST M2-2
# T3 construct: made in house
# T3 sequence (P28161 1-218): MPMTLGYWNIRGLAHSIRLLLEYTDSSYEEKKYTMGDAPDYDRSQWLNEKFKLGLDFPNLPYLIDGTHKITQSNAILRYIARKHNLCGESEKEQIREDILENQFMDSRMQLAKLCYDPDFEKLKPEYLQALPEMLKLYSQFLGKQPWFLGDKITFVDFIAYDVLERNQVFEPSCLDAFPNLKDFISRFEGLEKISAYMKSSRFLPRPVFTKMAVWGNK
# Experimental: as §2, §1, §3
# [3] = 10 μM inhibitor, 1 mM GSH, 1 mM CDNB, sodium phosphate pH 6.5, 30°C
# T1 sequence (M9ZT87 entry or part of it): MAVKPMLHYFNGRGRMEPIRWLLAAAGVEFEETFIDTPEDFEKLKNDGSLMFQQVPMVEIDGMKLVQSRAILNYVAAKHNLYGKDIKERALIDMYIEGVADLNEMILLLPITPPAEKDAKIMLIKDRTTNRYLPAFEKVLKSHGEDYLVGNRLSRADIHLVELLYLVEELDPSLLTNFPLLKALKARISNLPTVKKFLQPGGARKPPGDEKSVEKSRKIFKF
compound,measurement,setting,value
CCN(CCCc1ccccc1)CCCc1ccccc1 [Alverine citrate],inhibition at 10 µM,EcaGST A3-3 [1]; [3],31 ± 17%
NCC(=O)CCC(=O)O [Aminolevulinic acid hydrochloride],inhibition at 10 µM,EcaGST A3-3 [1]; [3],32 ± 11%
O=C1c2c(O)cccc2Cc2cccc(O)c21 [Anthralin],inhibition at 10 µM,EcaGST A3-3 [1]; [3],96 ± 1.8%
same,IC50,"EcaGST A3-3 [1]; 1 mM CDNB, 1 mM GSH",2100 ± 270 nM
same,"Hill coefficient, CDNB inhibition","EcaGST A3-3 [1]; dose-response curve, substrate CDNB, mean ± SD",2.0±0.43
same,Inhibition (%) of HsaGST P1-1,HsaGST P1-1,22%
same,Inhibition (%) of HsaGST S1-1,HsaGST S1-1,84%
same,IC50,HsaGST S1-1; CDNB activity,24000 nM
same,IC50,HsaGST A3-3,720 nM
same,inhibition at 10 µM,"HsaGST A3-3; pH 6.5, 10 μM inhibitor, read-out: Inhibition (%) of HsaGST A3-3",88%
same,IC50,EcaGST A3-3 [2],85 ± 4.8 nM
same,"IC50 EcaGST A3-3, substrate Δ^5-AD",EcaGST A3-3 [2]; 1 mM GSH,submicromolar range
same,Ki,"EcaGST A3-3 [2]; Ki, EcaGST A3-3, substrate Δ^5-AD, Δ^5-AD varied, 1 mM GSH, 0.09 μM inhibitor",90 nM and 93 nM
same,"Hill coefficient, Δ^5-AD inhibition","EcaGST A3-3 [2]; dose-response curve, substrate Δ^5-AD, mean ± SD",1.9±0.19
same,Times more potent with Δ^5-AD as substrate than with CDNB,"EcaGST A3-3 [2]; ratio of IC50 values CDNB vs Δ^5-AD, EcaGST A3-3",approximately 25 times
same,"Inhibition modality, substrate Δ^5-AD","EcaGST A3-3 [2]; Δ^5-AD varied, 1 mM GSH",Competitive
same,inhibition at 10 µM,"HsaGST M2-2; 10 μM inhibitor, read-out: Inhibition (%) of HsaGST M2-2",80%
OC[C@H]1O[C@H]([S-])[C@H](O)[C@@H](O)[C@@H]1O.[Au+] [Aurothioglucose],Inhibition (%) of EcaGST A3-3,EcaGST A3-3 [1]; [3],78 ± 28%
same,IC50,"EcaGST A3-3 [1]; 1 mM CDNB, 1 mM GSH",850 ± 120 nM
same,Inhibition (%) of HsaGST P1-1,HsaGST P1-1,< 4%
same,Inhibition (%) of HsaGST S1-1,HsaGST S1-1,24%
same,Inhibition (%) of HsaGST A3-3,HsaGST A3-3; 10 μM inhibitor,96%
same,IC50,HsaGST A3-3,910 nM
same,"IC50 EcaGST A3-3, substrate Δ^5-AD",EcaGST A3-3 [2]; 1 mM GSH,Anomalous curve
same,Inhibition (%) of HsaGST M2-2,HsaGST M2-2; 10 μM inhibitor,85%
same,IC50,HsaGST M2-2,12000 nM
O=C(Nc1ccc(C(=O)O)c(O)c1)c1ccccc1 [Benzoylpas],IC50,HsaGST M2-2,2500 nM
"O=[N+]([O-])c1ccc(Cl)c([N+](=O)[O-])c1 [CDNB, 1-chloro-2,4-dinitrobenzene]",Km,"EcaGST A3-3 [1]; read-out: Km of substrate CDNB with EcaGST A3-3, 1 mM GSH, fitted with and without ethacrynic acid",1260 ± 82 µM
CCCCCCCCCCCCCCCC(=O)OC[C@@H](NC(=O)C(Cl)Cl)[C@H](O)c1ccc([N+](=O)[O-])cc1 [Chloramphenicol palmitate],inhibition at 10 µM,EcaGST A3-3 [1]; [3],40 ± 1%
CC[C@H]1OC(=O)[C@H](C)[C@@H](O[C@H]2C[C@@](C)(OC)[C@@H](O)[C@H](C)O2)[C@H](C)[C@@H](O[C@@H]2O[C@H](C)C[C@H](N(C)C)[C@H]2O)[C@](C)(OC)C[C@@H](C)C(=O)[C@H](C)[C@@H](O)[C@]1(C)O [Clarithromycin],inhibition at 10 µM,EcaGST A3-3 [1]; [3],36 ± 7%
Oc1c(I)cc(Cl)c2cccnc12 [Clioquinol],inhibition at 10 µM,EcaGST A3-3 [1]; [3],64 ± 21%
CC(C)/N=c1\cc2n(-c3ccc(Cl)cc3)c3ccccc3nc-2cc1Nc1ccc(Cl)cc1 [Clofazimine],inhibition at 10 µM,EcaGST A3-3 [1]; [3],52 ± 14%
C[C@]12CC[C@@H]3c4ccc(OS(=O)(=O)O)cc4CC[C@H]3[C@@H]1CCC2=O [Estropipate],inhibition at 10 µM,EcaGST A3-3 [1]; [3],37 ± 23%
C=C1C[C@@H]2[C@H](CC[C@]3(C)C(=O)CC[C@@H]23)[C@@]2(C)C=CC(=O)C=C12 [Exemestane],inhibition at 10 µM,EcaGST A3-3 [1]; [3],41 ± 12%
CC(C)n1c(/C=C/C(O)CC(O)CC(=O)O)c(-c2ccc(F)cc2)c2ccccc21 (stereo not shown) [Fluvastatin sodium],inhibition at 10 µM,EcaGST A3-3 [1]; [3],31 ± 24%
OCCOCCN1CCN(C(c2ccccc2)c2ccc(Cl)cc2)CC1 (stereo not shown) [Hydroxyzine pamoate],inhibition at 10 µM,EcaGST A3-3 [1]; [3],≤ 30%
same,IC50,HsaGST M2-2,760 nM
